Here are results for 21 compounds from US7469185B2, “Primary rat hepatocyte toxicity modeling” (Ocimum Biosolutions, Inc., priority 2002, dated 2008).

The structures appear in SMILES notation.

The nature of series [1]: AlamarBlue cell viability assay. The note with it: male, Sprague-Dawley, rat. As to the method: (§1) Identification of toxicity markers was performed by microarray analysis and by the AlamarBlue® assay, a classical measure of cytotoxicity. The AlamarBlue® assay was performed in triplicate.
(§2) The source of the primary rat hepatocytes was Sprague Dawley Outbred CDs Rats (CRL:CD®[SD] IGS BR, Charles River Laboratories). […] Primary rat hepatocytes were received the day after the cells were removed from the animals. After arrival, the cells, the cells were incubated overnight (˜15 hrs) before the toxin was added to the cultures. […] Toxin or vehicle was administered to hepatocyte cultures as follows. For each treatment, i.e., vehicle alone, vehicle+toxin at low dose, or vehicle+toxin at high dose, cells were harvested after 3, 6 and 24-hour incubations with the toxin solution or with the vehicle.
(§3) The AlamarBlue® assay was performed as follows, using only the 24-hour time point samples. • 1. […] The culture medium (HIM) was removed from each well and replaced with 500 μl of fresh HIM following arrival of the cells, and the cells were incubated overnight (approximately 15 hrs) at 37° C., 5% CO2. • 3. The next day, the HIM was removed and 500 μl of the medium containing either vehicle or a dose of toxin was added. • 4. Lysis solution was used as a negative control. 450 μl medium+50 μl 9% Triton X100 were added to each of 3 wells containing cells, for a final Triton concentration of 1%. • 5. The cells in all wells were incubated for 24 hours at 37° C., 5% CO2. • 6. HIM medium was removed, and a solution containing 500 μl of fresh HIM medium+50 μl AlamarBlue® (BioSource International, Inc., Cat. No. DAL1100) was added to each well. • 7. The cells were incubated at 37° C., 5% CO2 for 2 hours. • 8. 100 μl medium was removed from each well of the 24-well plate and added to a well of a 96-well plate. […] Alternatively, two absorbance readings can be measured for the oxidized (600 nm) and the reduced (570 nm) form of AlamarBlueg. After obtaining absorbance readings, results were calculated according to the manufacturer's protocol provided in the product description. • 9. The data were evaluated to determine whether or not the toxin reduced cell viability. If so, the dose of the toxin that reduced cell viability by ˜10-20% was determined. Collection of RNA from Rat Hepatocytes

For series [2], the system named is male Sprague Dawley (SD) rats. The note with it: within 48 hours post dose; 0.1, 1, 2, 3, 4 mL/kg ip; […] po; cited from earlier work.
For a further series, the system named is primary rat hepatocytes. Kind of series: AlamarBlue cell viability assay. The note with it: 24 hours. As to the method: as §1, §2, §3
On the technique in general: Resazurin is reduced to fluorescent resorufin, in cell work by metabolically active cells.

In series [3] the test system is patients. The note with it: 180 reported cases; cited from earlier work.
Series [4] relates to rats. Kind of series: Lovastatin dosing of rats, liver tissue examination. It counts as in vivo, rat.
The conditions of series [5]: oral doses; cited from earlier work.
Series [6] deals with rats. As to the kind of experiment: AY-25329 14 day rat study: serum chemistry and light microscopy. Type of series: in vivo. From the text: The present inventors have noted indications of liver and renal effects of AY-25329 by changes in serum chemistry. […] Most of these markers of renal and liver dysfunction remained altered throughout the 14 day study period.
In series [7] the test system is patients. The note with it: human, in vivo; cited from earlier work.

In the case of `ClC(Cl)(Cl)Cl` [CCl4, carbon tetrachloride], in series [1], the viability at 24 h, 0.1 mM was ~100% and the viability at 24 h, 10 mM lay in the range of 80 to 85%. Further, in series [2], the “ALT and AST peak levels, fold increases” value is reported as 5-10 fold.
Turning to `COc1ccc2c(c1)c(CC(=O)O)c(C)n2C(=O)c1ccc(Cl)cc1` [Indomethacin], in series [1], the viability at 24 h, 0.1 mM was ~100% and the viability at 24 h, 1 mM is 85 to 90%.
With `C#C[C@]1(O)CC[C@H]2[C@@H]3CCc4cc(O)ccc4[C@H]3CC[C@@]21C` [17α-ethinylestradiol], the figures for the “% viability by AlamarBlue test” value with primary rat hepatocytes (high dose 100 uM) and in the series with primary rat hepatocytes (low dose 10 uM) were ~80% and ~100%, respectively.
In the case of `CC(=O)O[C@]1(C(C)=O)CC[C@H]2[C@@H]3C=C(Cl)C4=CC(=O)[C@@H]5C[C@@H]5[C@]4(C)[C@H]3CC[C@@]21C` [Cyproterone acetate], in series [1], the viability at 24 h, 40 uM was ~100% and the viability at 24 h, 400 uM is 65 to 70%.
As for `O=C(O)c1cc(-c2ccc(F)cc2F)ccc1O` [Diflunisal], in series [1], the viability at 24 h, 30 uM was ~100% and the viability at 24 h, 300 uM was 85 to 90%.
With `Cc1cccc(Nc2cc(Cl)nc(SCC(=O)O)n2)c1C` [Wy-14643], in series [1], the viability at 24 h, 10 uM was ~100% and the viability at 24 h, 100 uM was ~90%.
Turning to `NN` [Hydrazine], in series [1], the viability at 24 h, 0.1 mM lay within 90 to 95% and the viability at 24 h, 1 mM is 80 to 85%.
Consider `CCOC(=O)C(C)(C)Oc1ccc(Cl)cc1` [Clofibrate], for which, in series [1], the viability at 24 h, 0.5 mM was ~100% and the viability at 24 h, 5 mM was 80 to 85%.
Take `NC(=O)N1c2ccccc2C=Cc2ccccc21` [Carbamazepine]: in series [1], the viability at 24 h, 0.01 mM is ~100% and the viability at 24 h, 1 mM is ~90%.
On to `CN(Cc1cnc2nc(N)nc(N)c2n1)c1ccc(C(=O)N[C@@H](CCC(=O)O)C(=O)O)cc1` [Methotrexate], for which, in series [1], the viability at 24 h, 1 mM was ~100% and the viability at 24 h, 10 mM was ~90%.
As to `S=C=Nc1cccc2ccccc12` [ANIT, α-naphthylisothiocyanate], in series [1], the viability at 24 h, 25 uM is ~100% and the viability at 24 h, 250 uM is ~60%.
As for `Cc1ccc(C)c(OCCCC(C)(C)C(=O)O)c1` [Gemfibrozil, gemfibrozil], in series [1], the viability at 24 h, 0.3 mM is ~100% and the viability at 24 h, 3 mM was ~50%.
In the case of `O=C(O)Cc1ccccc1Nc1c(Cl)cccc1Cl` [Diclofenac], in series [1], the viability at 24 h, 55 uM is ~100% and the viability at 24 h, 550 uM was ~70%. In addition, the “jaundice, share of the symptomatic patients” value with patients [3] was 75%.
Take `CC[C@H](C)C(=O)O[C@H]1C[C@@H](C)C=C2C=C[C@H](C)[C@H](CC[C@@H]3C[C@@H](O)CC(=O)O3)[C@H]21` [Lovastatin]: in series [1], the viability at 24 h, 0.1 mM is ~100% and the viability at 24 h, 1 mM was ~100%. Besides, the “effects in liver tissue” value in the series on rats [4] (9 or 90 mg/kg twice a day, after 6 or after 24 hours) is recorded as “no effects were noted”. Moreover, the “effects in liver cells” value with rats [4] (after 14 days of treatment at the higher dosage (90 mg/kg twice a day)) is recorded as “abnormal vacuolization of the cytoplasm”. Besides, the “metabolites excreted in the urine” value in series [5] was “less than 13%”.
With `O=C(CCN1CCN2CCCC2C1)N1c2ccccc2Sc2ccc(Cl)cc21` (stereo not shown) [AY-25329], in series [1], the viability at 24 h, 5 uM is ~100% and the viability at 24 h, 50 uM is ~90%. The “light microscopic analysis, effects in the liver” value in the series with rats [6] (6 and 24 hours) was “increased number of hepatocytic mitotic figures and decreased glycogen content”. In addition, in the series on rats [6] (14 days of repeated dosing, 250 mg/kg/day), the “findings after repeated dosing” value is “nephrosis and alterations in the peripheral lobes of the liver and in the cytoplasm of hepatocytes”. Moreover, the “serum levels of creatinine, BUN, ALT, triglycerides and cholesterol” value in the series on rats [6] (as early as 6 hours after the first dose) was “statistically significant increases”.
Turning to `CCC1(c2ccccc2)C(=O)NC(=O)NC1=O` [Phenobarbital], in series [1], the viability at 24 h, 0.8 mM was ~100% and the viability at 24 h, 8 mM was > 95%.
For `CCCC(CCC)C(=O)O` [Valproate, n-dipropylacetic acid], the viability at 24 h, 0.4 mg/ml in series [1] was ~100%. Besides, the “patients with elevated levels of hepatic enzymes” value in the series on patients [7] was “about 40%”.
With `CC/C(=C(\c1ccccc1)c1ccc(OCCN(C)C)cc1)c1ccccc1` [Tamoxifen], in series [1], the viability at 24 h, 4 uM is ~100% and the viability at 24 h, 40 uM was ~45%.
Take `CN(C)CCCN1c2ccccc2Sc2ccc(Cl)cc21` [Chlorpromazine]: the viability at 24 h, 3 uM in series [1] was ~100%.
As for `CN(C)[C@@H]1C(O)=C(C(N)=O)C(=O)[C@@]2(O)C(O)=C3C(=O)c4c(O)cccc4[C@@](C)(O)[C@H]3C[C@@H]12` [Tetracycline], in series [1], the viability at 24 h, 0.1 mM is ~100% and the viability at 24 h, 1 mM fell in the range of 85 to 90%.
In the case of `CN(C)N=O` [DMN, dimethylnitrosamine], the “% viability by AlamarBlue test” value is recorded as ~80-85% in the series on primary rat hepatocytes (high dose 100 mM) and ~100% in the series with primary rat hepatocytes (low dose 1 mM).

For orientation: viability means a per cent measure of how many cells are alive, often set against a control. Low readings indicate a greater loss of cells, high ones better survival.
